Test results published in US9676732B2, “Ethynyl derivatives” (Hoffmann-La Roche Inc., priority 2013, dated 2017).

How the values were obtained:
[1] = system: marble burying test in mice; conditions: preclinical model of anxiety; cited from earlier work
[2] = system: EPM in mice; conditions: preclinical model of anxiety; cited from earlier work
[3] = system: EPM in rats; conditions: cited from earlier work
[4] = system: mice treated with 1-Methyl-4-Phenyl-1,2,3,6-Tetrahydropyridine (MPTP); conditions: cited from earlier work
[5] = system: 6-OHDA rodent model of PD; conditions: cited from earlier work
[6] = target: human mGlu4 receptor (Homo sapiens (Human), UniProt Q14833); assay: Ca2+ mobilization in vitro assay on recombinant human mGlu4 expressed in HEK293 cells (mGlu4 PAM); type: cell-based; conditions: for EC50: HEK293 cells stably expressing human mGlu4, L-AP4 added at EC20, read-out: EC50 (nM) mGlu4PAM; for Eff. (%): maximal response in % of the maximal stimulatory effect obtained with saturating concentrations of L-AP4
Protocol: Determination of EC50 Values Using a Ca2+ Mobilization In Vitro Assay on Recombinant Human mGlu4 Expressed in HEK293 Cells:
A monoclonal HEK-293 cell line stably transfected with a cDNA encoding for the human mGlu4 receptor was generated; for the work with mGlu4 Positive Allosteric Modulators (PAMs), a cell line with low receptor expression levels and low constitutive receptor activity was selected to allow the differentiation of agonistic versus PAM activity. Cells were cultured according to standard protocols (Freshney, 2000) in Dulbecco's Modified Eagle Medium with high glucose supplemented with 1 mM glutamine, 10% (vol/vol) heat-inactivated bovine calf serum, Penicillin/Streptomycin, 50 μg/ml hygromycin and 15 μg/ml blasticidin (all cell culture reagents and antibiotics from Invitrogen, Basel, Switzerland).
About 24 hrs before an experiment, 5×10^4 cells/well were seeded in poly-D-lysine coated, black/clear-bottomed 96-well plates. The cells were loaded with 2.5 μM Fluo-4AM in loading buffer (1×HBSS, 20 mM HEPES) for 1 hr at 37° C. and washed five times with loading buffer. The cells were transferred into a Functional Drug Screening System 7000 (Hamamatsu, Paris, France), and 11 half logarithmic serial dilutions of test compound at 37° C. were added and the cells were incubated for 10-30 min. with on-line recording of fluorescence. Following this pre-incubation step, the agonist (2S)-2-amino-4-phosphonobutanoic acid (L-AP4) was added to the cells at a concentration corresponding to EC20 with on-line recording of fluorescence; in order to account for day-to-day variations in the responsiveness of cells, the EC20 of L-AP4 was determined immediately ahead of each experiment by recording of a full dose-response curve of L-AP4.
Responses were measured as peak increase in fluorescence minus basal (i.e. fluorescence without addition of L-AP4), normalized to the maximal stimulatory effect obtained with saturating concentrations of L-AP4. Graphs were plotted with the % maximal stimulatory using XLfit, a curve fitting program that iteratively plots the data using Levenburg Marquardt algorithm. The single site competition analysis equation used was y=A+((B−A)/(1+((x/C)D))), where y is the % maximal stimulatory effect, A is the minimum y, B is the maximum y, C is the EC50, x is the log 10 of the concentration of the competing compound and D is the slope of the curve (the Hill Coefficient). From these curves the EC50 (drug concentration at which 50% of the maximal receptor activation was achieved), the Hill coefficient as well as the maximal response in % of the maximal stimulatory effect obtained with saturating concentrations of L-AP4 were calculated (see FIG. 1).
A depression of the signal observed after addition of the EC20 concentration of L-AP4 was indicative of an inhibitory activity of the test compound. • FIG. 1: Illustration of the experimental outline for mGlu4 PAM Ca2+ mobilization screening assay and the determination of EC50 and % Emax values.

Sequence of human mGlu4 receptor (Q14833 33-912): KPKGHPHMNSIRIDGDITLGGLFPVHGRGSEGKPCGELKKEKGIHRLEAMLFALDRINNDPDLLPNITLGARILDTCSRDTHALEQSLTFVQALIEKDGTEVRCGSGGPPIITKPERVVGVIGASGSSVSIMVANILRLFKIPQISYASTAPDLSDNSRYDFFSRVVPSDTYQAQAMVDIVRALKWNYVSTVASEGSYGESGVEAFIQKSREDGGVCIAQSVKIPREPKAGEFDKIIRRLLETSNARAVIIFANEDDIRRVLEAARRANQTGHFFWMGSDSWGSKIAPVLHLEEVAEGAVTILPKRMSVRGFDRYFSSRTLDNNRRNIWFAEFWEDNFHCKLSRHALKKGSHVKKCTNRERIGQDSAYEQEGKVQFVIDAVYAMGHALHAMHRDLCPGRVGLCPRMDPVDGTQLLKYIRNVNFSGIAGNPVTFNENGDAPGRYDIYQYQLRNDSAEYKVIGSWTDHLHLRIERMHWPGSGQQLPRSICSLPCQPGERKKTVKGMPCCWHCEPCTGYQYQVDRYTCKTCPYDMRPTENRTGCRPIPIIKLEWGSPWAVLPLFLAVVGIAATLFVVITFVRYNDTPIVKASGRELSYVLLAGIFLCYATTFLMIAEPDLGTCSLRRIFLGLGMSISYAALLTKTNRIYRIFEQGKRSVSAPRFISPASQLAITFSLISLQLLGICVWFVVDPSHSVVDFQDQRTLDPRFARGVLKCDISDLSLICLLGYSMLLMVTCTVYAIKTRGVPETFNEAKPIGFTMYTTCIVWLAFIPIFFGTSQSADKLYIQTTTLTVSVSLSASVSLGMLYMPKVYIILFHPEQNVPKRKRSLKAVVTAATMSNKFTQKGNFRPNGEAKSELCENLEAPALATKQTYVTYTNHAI

| EC50 [6] [nM] | Eff. (%) [6] [%] | Structure (SMILES) | further results |
| --- | --- | --- | --- |
|  |  | Cc1ccnc(Nc2nc(-c3cn[nH]c3)c(C)s2)n1 [ADX88178] | activity in marble burying test [1]: active; activity in EPM [2]: active; profile in rat EPM test ([3]; rat, after oral dosing): anxiolytic-like profile; activity in EPM ([3]; rats, preclinical model of anxiety): active |
|  |  | O=C(Nc1ccccc1)C12CC1/C(=N\O)c1ccccc1O2 (single isomer, unassigned; (-)) [(−)-PHCCC] | nigrostriatal degeneration [4]: reduced nigrostriatal degeneration |
|  |  | N[C@@H](CCP(=O)(O)O)C(=O)O [L-AP4, (2S)-2-amino-4-phosphonobutanoic acid] | neuroprotection [5]: neuroprotective effects |
| 47 | 86 | Cn1cc2c(n1)c(=O)n(-c1c(F)cc(C#Cc3ccccc3)cc1F)c(=O)n2C [Example 33, 6-[2,6-Difluoro-4-(2-phenylethynyl)phenyl]-2,4-dimethyl-pyrazolo[4,3-d]pyrimidine-5,7-dione] |  |
| 203 | 168 | Cn1c(=O)n(-c2c(F)cc(C#Cc3ccccc3)cc2F)c(=O)c2ccccc21 [Example 23, 3-[2,6-Difluoro-4-(2-phenylethynyl)phenyl]-1-methyl-quinazoline-2,4-dione] |  |
| 175 | 122 | Cn1cnc2c1c(=O)n(-c1ccc(C#Cc3ccccc3)cc1Cl)c(=O)n2C [Example 11, 1-[2-Chloro-4-(2-phenylethynyl)phenyl]-3,7-dimethyl-purine-2,6-dione] |  |
| 94 | 99 | Cc1cccc2c(=O)n(-c3ccc(C#Cc4ccccc4)cc3Cl)c(=O)n(C)c12 [Example 2, 3-[2-Chloro-4-(2-phenylethynyl)phenyl]-1,8-dimethyl-quinazoline-2,4-dione] |  |
| 399 | 180 | Cn1c(=O)n(-c2ccc(C#Cc3ccccc3)cc2Cl)c(=O)c2cnccc21 [Example 10, 3-[2-Chloro-4-(2-phenylethynyl)phenyl]-1-methyl-pyrido[4,3-d]pyrimidine-2,4-dione] |  |
| 93 | 108 | Cc1ccc2c(=O)n(-c3ccc(C#Cc4ccccc4)cc3Cl)c(=O)n(C)c2c1 [Example 5, 3-[2-Chloro-4-(2-phenylethynyl)phenyl]-1,7-dimethyl-quinazoline-2,4-dione] |  |
| 187 | 110 | O=c1c2cccc3c2n(c(=O)n1-c1ncc(C#Cc2ccccc2)cc1Cl)CC3 [Example 47, 2-(3-Chloro-5-(phenylethynyl)pyridin-2-yl)-5,6-dihydro-1H-pyrrolo[3,2,1-ij]quinazoline-1,3(2H)-dione] |  |
| 80 | 106 | O=c1c2cccc3c2n(c(=O)n1-c1ccc(C#Cc2ccccc2)cc1Cl)CC3 [Example 12, 2-(2-Chloro-4-(phenylethynyl)phenyl)-5,6-dihydro-1H-pyrrolo[3,2,1-ij]quinazoline-1,3(2H)-dione] |  |
| 222 | 101 | Cn1c(=O)n(-c2ccc(C#Cc3ccccc3)cc2Cl)c(=O)c2cccnc21 [Example 7, 3-[2-Chloro-4-(2-phenylethynyl)phenyl]-1-methyl-pyrido[2,3-d]pyrimidine-2,4-dione] |  |
| 766 | 123 | CC(C)n1c(=O)n(-c2ccc(C#Cc3ccccc3)cn2)c(=O)c2ccccc21 [Example 55, 1-Isopropyl-3-[5-(2-phenylethynyl)-2-pyridyl]quinazoline-2,4-dione] |  |
| 302 | 111 | Cc1cccc2c(=O)n(-c3ncc(C#Cc4ccccc4)cc3F)c(=O)n(C)c12 [Example 49, 3-[3-Fluoro-5-(2-phenylethynyl)-2-pyridyl]-1,8-dimethyl-quinazoline-2,4-dione] |  |
| 246 | 188 | Cn1c(=O)n(-c2ccc(C#Cc3ccccc3)cc2Cl)c(=O)c2ncsc21 [Example 67, 6-[2-Chloro-4-(2-phenylethynyl)phenyl]-4-methyl-thiazolo[5,4-d]pyrimidine-5,7-dione] |  |
| 372 | 180 | Cn1c(=O)n(-c2ncc(C#Cc3ccccc3)cc2Cl)c(=O)c2ccccc21 [Example 44, 3-[3-Chloro-5-(2-phenylethynyl)-2-pyridyl]-1-methyl-quinazoline-2,4-dione] |  |
| 63 | 134 | CC(C)n1c(=O)n(-c2c(F)cc(C#Cc3ccccc3)cc2C(F)(F)F)c(=O)c2ccccc21 [Example 72, 3-[2-Fluoro-4-(2-phenylethynyl)-6-(trifluoromethyl)phenyl]-1-isopropyl-quinazoline-2,4-dione] |  |
| 50 | 74 | Cc1csc2c(=O)n(-c3ccc(C#Cc4ccccc4)cc3Cl)c(=O)n(C)c12 [Example 20, 3-[2-Chloro-4-(2-phenylethynyl)phenyl]-1,7-dimethyl-thieno[3,2-d]pyrimidine-2,4-dione] |  |
|  | 85 | O=c1[nH]c2ncsc2c(=O)n1-c1c(F)cc(C#Cc2ccccc2)cc1F [Example 31, 6-[2,6-Difluoro-4-(2-phenylethynyl)phenyl]-4H-thiazolo[4,5-d]pyrimidine-5,7-dione] |  |
| 65 | 100 | CCc1cccc2c(=O)n(-c3ccc(C#Cc4ccccc4)cc3Cl)c(=O)n(C)c12 [Example 8, 3-[2-Chloro-4-(2-phenylethynyl)phenyl]-8-ethyl-1-methyl-quinazoline-2,4-dione] |  |
